Measurements as given in patent US6670487B1, “Method for removing impurities from oxidation products” (General Electric Company, priority 2002, dated 2003).

Key:
[1] = Solvent extraction of aqueous crude chlorophthalic acid solution: distribution coefficient K and selectivity beta of chlorophthalides; format: physicochemical; parameters: key to K values: K = chlorophthalide mass fraction organic phase / aqueous phase; key to beta values: beta = (phthalide/acid wt fraction, organic) ÷ (same ratio, water)
Excerpt: In one embodiment the efficacy of a solvent extraction may be measured by the distribution coefficient, K, which is the mole fraction of specified solute in the organic solvent phase compared to the mole fraction of specified solute in the aqueous phase. In some particular embodiments an organic solvent is employed such that the value of the distribution coefficient, K, for phthalide in a product mixture comprising at least one phthalic acid is greater than 1. In other particular embodiments an organic solvent is employed such that the value of the distribution coefficient, K, for chlorophthalide in a product mixture comprising at least one chlorophthalic acid is greater than 1. In various particular embodiments an organic solvent is employed such that the value of the distribution coefficient, K, for chlorophthalide is in one embodiment in a range of between about 1.1 and about 5, and in another embodiment in a range of between about 1.1 and about 4. In a particular embodiment the distribution coefficient is measured for 4-chlorophthalide with water and various organic solvents such as toluene and xylene.
Another factor for measuring the efficacy of a solvent extraction is the selectivity factor, β, which compares the ratio of two components of interest in one phase to the ratio of the same two components in the other phase. In a particular embodiment the selectivity factor is measured for 4-chlorophthalide in relation to chlorophthalic acids in both water and organic solvent.
A 35 wt. % solution of crude chlorophthalic acid in water was prepared by adding appropriate amounts of 4- and 3-chlorophthalic anhydride (70/30 isomer ratio) along with a mixture of about 3 wt. % (based on crude chlorophthalic anhydride) of synthetic 4- and 7-chlorophthalide (produced by reduction of 3-chlorophthalic anhydride). […] A number of vials were prepared each containing 5 milliliters (ml.) of an aqueous phase comprising a certain concentration of crude chlorophthalic acid (5 wt. % to 35 wt. %, based on the weight of the entire aqueous phase and, optionally, acetic acid (0 wt. % to 36 wt. %, based on the weight of the entire aqueous phase). Each vial was then treated with 5 ml. of either toluene, o-dichlorobenzene (ODCB), or ortho-xylene. The vials were then shaken vigorously in a mechanical shaker for 50 minutes at a specified temperature (22° C., 42° C., or 60° C.). The phases were allowed to separate over several hours (actual phase separation occurred much quicker than this) and then each phase was sampled using a pipette. No stable emulsions were observed under the conditions which were examined. The organic phase was analyzed directly by GC (using biphenyl internal standard, following silylation of the product mixture), while for the aqueous phase, water was evaporated and solid residue was redissolved in organic solvent before GC analysis. The analytical data were used to calculate an equilibrium constant, K, which represented the ratio of chlorophthalides mass fraction in the organic phase to that in the aqueous phase. The analytical data were also used to calculate a selectivity constant, beta, which represented the quotient of [(wt. fraction of chlorophthalides in xylene)/(wt fraction of chlorophthalic acids in xylene)] divided by the quotient of [(wt fraction of chlorophthalides in water)/(wt fraction of chlorophthalic acids in water)]. The data in Table 1 show results of extractions performed at 22° C. with no acetic acid present.
The Procedure of Example 1 was repeated except that extractions were performed at 22 wt. % initial chlorophthalic acid concentration at 22° C. in the presence of different levels of acetic acid.
The procedure of Example 1 was repeated except that extractions were performed at different wt. % initial chlorophthalic acid concentration at 60° C. with no acetic acid present. […]

[2] = as above; format: physicochemical; parameters: key to K values: K = chlorophthalide mass fraction organic phase / aqueous phase; key to beta values: beta = (phthalide/acid wt fraction, organic) ÷ (same ratio, water); conditions: 22 wt.% chlorophthalic acid, 60° C.
[3] = ODCB/water, 9 wt.% acetic acid in initial aqueous phase, 22 wt.% chlorophthalic acid, 22° C.
[4] = ODCB/water, 10 wt.% acetic acid in initial aqueous phase, 22 wt.% chlorophthalic acid, 60° C.
[5] = ODCB/water, 12 wt.% chlorophthalic acid in aqueous phase, 22° C., no acetic acid
[6] = ODCB/water, 17 wt.% acetic acid in initial aqueous phase, 22 wt.% chlorophthalic acid, 22° C.
[7] = ODCB/water, 19 wt.% acetic acid in initial aqueous phase, 22 wt.% chlorophthalic acid, 60° C.
[8] = ODCB/water, 22 wt.% chlorophthalic acid in aqueous phase, 60° C., no acetic acid
[9] = ODCB/water, 23 wt.% chlorophthalic acid in aqueous phase, 22° C., no acetic acid
[10] = ODCB/water, 26 wt.% acetic acid in initial aqueous phase, 22 wt.% chlorophthalic acid, 22° C.
[11] = ODCB/water, 35 wt.% acetic acid in initial aqueous phase, 22 wt.% chlorophthalic acid, 22° C.
[12] = ODCB/water, 35 wt.% chlorophthalic acid in aqueous phase, 22° C., no acetic acid
[13] = ODCB/water, 35 wt.% chlorophthalic acid in aqueous phase, 60° C., no acetic acid
[14] = toluene/water, 12 wt.% chlorophthalic acid in aqueous phase, 22° C., no acetic acid
[15] = toluene/water, 17 wt.% acetic acid in initial aqueous phase, 22 wt.% chlorophthalic acid, 22° C.
[16] = toluene/water, 22 wt.% chlorophthalic acid in aqueous phase, 60° C., no acetic acid
[17] = toluene/water, 23 wt.% chlorophthalic acid in aqueous phase, 22° C., no acetic acid
[18] = toluene/water, 26 wt.% acetic acid in initial aqueous phase, 22 wt.% chlorophthalic acid, 22° C.
[19] = toluene/water, 35 wt.% chlorophthalic acid in aqueous phase, 22° C., no acetic acid
[20] = toluene/water, 35 wt.% chlorophthalic acid in aqueous phase, 60° C., no acetic acid
[21] = toluene/water, 36 wt.% acetic acid in initial aqueous phase, 22 wt.% chlorophthalic acid, 22° C.
[22] = xylene/water, 12 wt.% chlorophthalic acid in aqueous phase, 22° C., no acetic acid
[23] = xylene/water, 23 wt.% chlorophthalic acid in aqueous phase, 22° C., no acetic acid
[24] = xylene/water, 35 wt.% chlorophthalic acid in aqueous phase, 22° C., no acetic acid

- K values ([1]; ODCB/water, 5.5 wt.% chlorophthalic acid in aqueous phase, 22° C., no acetic acid): 1.1
- beta values ([1]; ODCB/water, 5.5 wt.% chlorophthalic acid in aqueous phase, 22° C., no acetic acid, chlorophthalides vs chlorophthalic acids): 400
- K values [1, 3]: 2.3
- beta values [1, 3]: 200
- K values [1, 4]: 3.1
- beta values [1, 4]: 600
- K values [1, 5]: 1.8
- beta values [1, 5]: 800
- K values [1, 6]: 2.2
- beta values [1, 6]: 200
- K values [1, 7]: 2.5
- beta values [1, 7]: 300
- K values [1, 8]: 2.8
- beta values [1, 8]: 800
- K values [1, 9]: 2.2
- beta values [1, 9]: 300
- K values [1, 10]: 1.9
- beta values [1, 10]: 100
- K values ([1]; ODCB/water, 29 wt.% acetic acid in initial aqueous phase, 22 wt.% chlorophthalic acid, 60° C.): 2.3
- K values [1, 11]: 1.7
- beta values [1, 11]: 100
- K values [1, 12]: 1.4
- beta values [1, 12]: 260
- K values [1, 13]: 1.7
- beta values [1, 13]: 800
- beta values ([1]; ODCB/water, 37 wt.% acetic acid in initial aqueous phase, 22 wt.% chlorophthalic acid, 60° C.): 100
- values for K ([1]; acetic acid 0-35 wt.% based on the weight of the water, 22 wt.% solids): 1.7-2.6
- selectivity numbers for chlorophthalic acids and chlorophthalide ([1]; o-dichlorobenzene, chlorophthalic acids about 20 wt.%, chlorophthalide about 0.6%): ~500
- selectivity numbers for chlorophthalic acids and chlorophthalide ([1]; toluene and xylene, chlorophthalic acids about 20 wt.%, chlorophthalide about 0.6%): 4000-5000
- values of K ([1]; toluene, xylene and o-dichlorobenzene, chlorophthalic acids about 20 wt.%, chlorophthalide about 0.6%): 1.5-2.5
- K values ([1]; toluene/water, 6 wt.% chlorophthalic acid in aqueous phase, 22° C., no acetic acid): 1.8
- beta values ([1]; toluene/water, 6 wt.% chlorophthalic acid in aqueous phase, 22° C., no acetic acid, chlorophthalides vs chlorophthalic acids): 800
- beta values ([1]; toluene/water, 10 wt.% acetic acid in initial aqueous phase, 22 wt.% chlorophthalic acid, 60° C.): 900
- K values [1, 14]: 2.6
- beta values [1, 14]: 2500
- K values [1, 15]: 2.5
- beta values [1, 15]: 400
- K values ([1]; toluene/water, 19 wt.% acetic acid in initial aqueous phase, 22 wt.% chlorophthalic acid, 60° C.): 2.9
- K values [1, 16]: 3.5
- beta values [1, 16]: 1800
- K values [1, 17]: 2.5
- beta values [1, 17]: 3900
- K values [1, 18]: 2.2
- beta values [1, 18]: 150
- K values ([1]; toluene/water, 29 wt.% acetic acid in initial aqueous phase, 22 wt.% chlorophthalic acid, 60° C.): 2.4
- K values [1, 19]: 1.7
- beta values [1, 19]: 3400
- K values [1, 20]: 2.0
- beta values [1, 20]: 1400
- K values [1, 21]: 1.9
- beta values [1, 21]: 100
- beta values ([1]; toluene/water, 38 wt.% acetic acid in initial aqueous phase, 22 wt.% chlorophthalic acid, 60° C.): 50
- selectivity numbers ([1]; toluene, 0 wt.% acetic acid, 22 wt.% solids): 4000
- selectivity numbers ([1]; toluene, 18 wt.% acetic acid, 22 wt.% solids): about 400
- K values [1, 22]: 2.5
- beta values [1, 22]: 3500
- K values [1, 23]: 1.8
- beta values [1, 23]: 4700
- K values [1, 24]: 1.3
- beta values [1, 24]: 4200
- beta values ([2]; ODCB/water, 29 wt.% acetic acid in initial aqueous phase): 150
- K values ([2]; ODCB/water, 37 wt.% acetic acid in initial aqueous phase): 1.7
- K values ([2]; toluene/water, 10 wt.% acetic acid in initial aqueous phase): 3.3
- beta values ([2]; toluene/water, 19 wt.% acetic acid in initial aqueous phase): 300
- beta values ([2]; toluene/water, 29 wt.% acetic acid in initial aqueous phase): 150
- K values ([2]; toluene/water, 38 wt.% acetic acid in initial aqueous phase): 1.6
Substance: 4- and 7-chlorophthalide [chlorophthalides]
